# The supplement of paper PMC10307832
# Columns and labels:
# Assay in all cases: relative viability (nuclei count vs DMSO), 5 days (fraction); higher = more cells survive
# KIN001-266 + Pemetrexed = compound: CCN1CCC(CC1)N2C=C(N=N2)CNC3=CC4=C(C(=CN=C4C(=C3)Cl)C#N)NC5=CC(=C(C=C5)F)Cl [KIN001-266] + Nc1nc2[nH]cc(CCc3ccc(C(=O)N[C@@H](CCC(=O)O)C(=O)O)cc3)c2c(=O)[nH]1 [Pemetrexed] (partner 0.2 µM)
# Summary of the method: (§1)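 The day after seeding in 1536-well plates, lung cancer cell lines were treated by pin tool with a single drug, or with a fixed anchor-drug dose together with five library-drug doses (not always all listed) in √10 steps. After 5 days, a combined fix-and-stain solution (final 0.05% Triton X-100, 1% formaldehyde, 1 ug/ml Hoechst) was added. Nuclei counted on 4× images gave relative viability as treated counts over vehicle counts, reported as the median of duplicate plates.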
# KIN001-266 + Palbociclib = compound: CCN1CCC(CC1)N2C=C(N=N2)CNC3=CC4=C(C(=CN=C4C(=C3)Cl)C#N)NC5=CC(=C(C=C5)F)Cl [KIN001-266] + CC(=O)c1c(C)c2cnc(Nc3ccc(N4CCNCC4)cn3)nc2n(C2CCCC2)c1=O [Palbociclib] (partner 0.5 µM)
# Summary of the method: as §1
# KIN001-266 + Olaparib = compound: CCN1CCC(CC1)N2C=C(N=N2)CNC3=CC4=C(C(=CN=C4C(=C3)Cl)C#N)NC5=CC(=C(C=C5)F)Cl [KIN001-266] + O=C(c1cc(Cc2n[nH]c(=O)c3ccccc23)ccc1F)N1CCN(C(=O)C2CC2)CC1 [Olaparib] (partner 8 µM)
# Summary of the method: as §1
# KIN001-266 + Alpelisib = compound: CCN1CCC(CC1)N2C=C(N=N2)CNC3=CC4=C(C(=CN=C4C(=C3)Cl)C#N)NC5=CC(=C(C=C5)F)Cl [KIN001-266] + Cc1nc(NC(=O)N2CCC[C@H]2C(N)=O)sc1-c1ccnc(C(C)(C)C(F)(F)F)c1 [Alpelisib] (partner 2 µM)
# Summary of the method: as §1
Cell Line,relative viability (KIN001-266 + Pemetrexed; first compound 0.08 µM),relative viability (KIN001-266 + Pemetrexed; first compound 0.253 µM),relative viability (KIN001-266 + Pemetrexed; first compound 0.8 µM),relative viability (KIN001-266 + Pemetrexed; first compound 2.53 µM),relative viability (KIN001-266 + Pemetrexed; first compound 8 µM),relative viability (KIN001-266 + Palbociclib; first compound 0.08 µM),relative viability (KIN001-266 + Palbociclib; first compound 0.253 µM),relative viability (KIN001-266 + Palbociclib; first compound 0.8 µM),relative viability (KIN001-266 + Palbociclib; first compound 2.53 µM),relative viability (KIN001-266 + Palbociclib; first compound 8 µM),relative viability (KIN001-266 + Olaparib; first compound 0.08 µM),relative viability (KIN001-266 + Olaparib; first compound 0.253 µM),relative viability (KIN001-266 + Olaparib; first compound 0.8 µM),relative viability (KIN001-266 + Olaparib; first compound 2.53 µM),relative viability (KIN001-266 + Olaparib; first compound 8 µM),relative viability (KIN001-266 + Alpelisib; first compound 0.08 µM),relative viability (KIN001-266 + Alpelisib; first compound 0.253 µM),relative viability (KIN001-266 + Alpelisib; first compound 0.8 µM),relative viability (KIN001-266 + Alpelisib; first compound 2.53 µM),relative viability (KIN001-266 + Alpelisib; first compound 8 µM)
201T,0.342,0.375,0.352,0.34,0.319,0.342,0.366,0.35,0.361,0.359,0.822,0.852,0.809,0.855,0.816,1.03,1,1.02,1.05,1.01
A549,,,,,,,,,,,0.367,0.279,0.297,0.347,0.305,1.01,0.782,0.898,0.758,0.701
A-427,1.01,0.96,1.04,0.881,0.95,0.511,0.524,0.5,0.493,0.526,0.723,0.789,0.726,0.615,0.639,1.12,1.05,1.04,1.02,0.998
ABC-1,,,,,,0.789,0.799,0.598,0.65,0.558,0.737,0.583,0.767,0.795,0.863,1.23,1.08,1.09,0.812,0.976
BEN,0.982,0.776,0.919,0.68,0.744,0.439,0.495,0.511,0.467,0.507,1,0.988,1.12,1.17,0.977,0.841,1.08,1.03,0.997,0.916
CAL-12T,1.25,1.1,1.15,1.2,1.15,0.44,0.492,0.438,0.359,0.419,0.785,0.732,0.663,0.652,0.633,1.43,1.39,1.11,1.3,1.02
COR-L23,0.204,0.219,0.206,0.191,0.209,0.334,0.28,0.281,0.294,0.22,0.372,0.367,0.345,0.293,0.294,0.735,0.804,0.814,0.736,0.404
COR-L 105,1.13,1.06,0.883,1.11,1.07,0.399,0.386,0.376,0.407,0.436,0.729,0.619,0.651,0.521,0.566,1.15,0.859,1.14,0.9,0.896
Calu-6,,,,,,,,,,,0.649,0.653,0.587,0.542,0.365,1.16,0.915,1.1,0.915,0.86
ChaGo-K-1,0.264,0.268,0.255,0.25,0.237,0.949,1.01,0.851,0.84,0.428,0.401,0.422,0.301,0.282,0.227,,,,,
EKVX,0.295,0.432,0.406,0.391,0.375,0.402,0.406,0.403,0.391,0.367,0.914,0.899,0.844,0.78,0.865,0.871,0.817,0.83,0.807,0.877
EMC-BAC-2,0.505,0.504,0.449,0.462,0.529,0.54,0.581,0.523,0.562,0.561,0.546,0.519,0.449,0.437,0.46,0.718,0.751,0.749,0.743,0.733
EPLC-272H,0.373,0.364,0.374,0.319,0.323,0.348,0.354,0.275,0.307,0.312,0.885,0.869,1.08,0.643,0.273,1.05,0.874,0.938,0.842,0.74
H3255,0.55,0.585,0.5,0.506,0.505,0.336,0.3,0.307,0.311,0.282,0.583,0.55,0.565,0.517,0.455,0.685,0.737,0.756,0.785,0.475
HARA,0.289,0.276,0.256,0.242,0.206,0.237,0.27,0.261,0.237,0.18,0.798,0.762,0.806,0.559,0.467,0.771,0.77,0.835,0.847,0.59
HCC-15,0.234,0.222,0.221,0.206,0.225,0.707,0.806,0.593,0.608,0.509,0.743,0.747,0.64,0.651,0.511,0.867,0.849,0.766,0.781,0.586

Cell Line,relative viability (KIN001-266 + Pemetrexed; first compound 0.08 µM),relative viability (KIN001-266 + Pemetrexed; first compound 0.253 µM),relative viability (KIN001-266 + Pemetrexed; first compound 0.8 µM),relative viability (KIN001-266 + Pemetrexed; first compound 2.53 µM),relative viability (KIN001-266 + Pemetrexed; first compound 8 µM),relative viability (KIN001-266 + Palbociclib; first compound 0.08 µM),relative viability (KIN001-266 + Palbociclib; first compound 0.253 µM),relative viability (KIN001-266 + Palbociclib; first compound 0.8 µM),relative viability (KIN001-266 + Palbociclib; first compound 2.53 µM),relative viability (KIN001-266 + Palbociclib; first compound 8 µM),relative viability (KIN001-266 + Olaparib; first compound 0.08 µM),relative viability (KIN001-266 + Olaparib; first compound 0.253 µM),relative viability (KIN001-266 + Olaparib; first compound 0.8 µM),relative viability (KIN001-266 + Olaparib; first compound 2.53 µM),relative viability (KIN001-266 + Olaparib; first compound 8 µM),relative viability (KIN001-266 + Alpelisib; first compound 0.08 µM),relative viability (KIN001-266 + Alpelisib; first compound 0.253 µM),relative viability (KIN001-266 + Alpelisib; first compound 0.8 µM),relative viability (KIN001-266 + Alpelisib; first compound 2.53 µM),relative viability (KIN001-266 + Alpelisib; first compound 8 µM)
HCC-44,0.678,0.651,0.607,0.592,0.642,1.06,0.973,0.95,0.949,1.03,0.994,0.959,0.944,0.884,0.993,0.806,0.838,0.805,0.868,0.651
HCC-78,0.874,0.832,0.872,0.873,0.91,0.506,0.518,0.476,0.431,0.415,0.832,0.793,0.767,0.841,0.677,0.302,0.346,0.377,0.46,0.411
HCC-366,0.207,0.157,0.144,0.184,0.24,0.425,0.371,0.302,0.407,0.403,0.403,0.339,0.271,0.3,0.227,0.495,0.492,0.583,0.374,0.364
HCC-827,0.264,0.259,0.166,0.214,0.23,0.443,0.492,0.374,0.471,0.467,0.577,0.602,0.557,0.585,0.528,0.953,1.04,,0.948,0.648
HOP-62,0.313,0.304,0.469,0.353,0.381,0.473,0.472,0.457,0.479,0.485,0.5,0.475,0.381,0.46,0.319,1.09,1.21,0.967,1.02,0.84
IA-LM,,,,,,,,,,,0.884,0.791,0.845,0.853,0.625,1.09,0.652,0.754,0.635,0.755
NCI-H522,1.06,1.01,1.01,1.06,0.932,1.04,1.07,0.952,0.95,0.804,0.672,0.785,0.665,0.559,0.483,,,,,
NCI-H596,0.451,0.481,0.498,0.403,0.477,,,,,,0.744,0.723,0.662,0.712,0.756,0.492,0.445,0.431,0.534,0.398
NCI-H727,,,,,,0.683,0.617,0.642,0.671,0.729,0.679,0.649,0.626,0.683,0.531,0.585,0.567,0.622,0.597,0.329
NCI-H1299,,,,,,,,,,,0.941,1.03,0.933,0.859,0.775,1.04,1.05,0.548,0.975,1.01
NCI-H1563,0.885,0.714,0.865,0.793,0.914,,,,,,,,,,,0.996,0.904,0.92,0.906,0.897
NCI-H1648,0.641,0.791,0.66,0.626,0.758,0.298,0.277,0.277,0.281,0.261,1,0.711,0.816,0.55,0.996,,,,,
NCI-H1650,0.371,0.409,0.412,0.338,0.36,0.407,0.362,0.377,0.267,0.196,0.708,0.751,0.655,0.587,0.437,,,,,
NCI-H1703,,,,,,,,,,,0.451,0.386,0.435,0.391,0.401,0.419,0.307,0.31,0.289,0.325
NCI-H2342,0.785,0.738,0.619,0.705,0.91,0.52,0.518,0.471,0.597,0.575,0.547,0.4,0.427,0.407,0.419,,,,,
SW 900,0.494,0.496,0.491,0.47,0.43,0.558,0.498,0.611,0.555,0.268,0.964,0.88,0.877,0.821,0.335,,,,,
